From patent US8846606B2, “Method and drug composition for treating septic shock hypotension” (priority 2010, dated 2014)
Read-outs that look alike come from different tables or passages of the source.

How the values were obtained:
[1] = tested on: alpha-1A / beta-2 adrenergic receptor; conditions: unless beta-2 adrenergic receptor is activated by isoproterenol; cited from earlier work
[2] = tested on: rats submitted to sepsis (lipopolysaccharide); conditions: septic rats as compared to control animals; cited from earlier work
[3] = tested on: alpha-1 messengerRNA (mRNA); conditions: in vitro, cited from earlier work
hypertensive patients [4] = conditions: cited from earlier work
alpha-2 receptors = conditions: 72 h administration; accentuated in hypertensive vs normotensive rats; cited from earlier work
alpha-1 receptors [5] = conditions: 72 h administration; accentuated in hypertensive vs normotensive rats; cited from earlier work
decerebrated rats = conditions: catecholamine-depleted rats; cited from earlier work
[6] = tested on: septic shock in surgical patients
Text: (§1) In these patients, formal challenges were undertaken with noradrenaline or dobutamine boluses to rise the SBP by 25 mm Hg or the HR by 20 bpmin, respectively.

[7] = tested on: liver transplant patients; conditions: cited from earlier work
[8] = tested on: beta receptors located on lymphocytes; conditions: cited from earlier work
[9] = tested on: awake and anesthetized patients; conditions: phenylephrine bolus 2 μg.kg−1; control +17 mm Hg; cited from earlier work
[10] = tested on: patients presenting with severe idiopathic hypotension; conditions: clonidine 0.4-0.8 mg p.o.; cited from earlier work
[11] = tested on: major abdominal surgery patients; conditions: cited from earlier work
[12] = tested on: conscious or anesthetized patients; conditions: clonidine 5 μg.kg−1 p.o.; cited from earlier work
[13] = tested on: septic shock in a patient; conditions: cited from earlier work
tetraplegic patients = conditions: cited from earlier work
[14] = tested on: patients presenting with septic shock
Text: as §1

aortic surgery patients = conditions: cited from earlier work
hypertensive patients [15] = conditions: after clonidine 0.2-0.4 mg/day for 6-8 weeks, cited from earlier work
beta receptor = conditions: cited from earlier work
[16] = tested on: patients presenting with moderate septic shock; conditions: cited from earlier work
alpha-1 receptors [17] = conditions: in vitro; cited from earlier work
[18] = tested on: beta-1 and alpha1b-receptors; conditions: selected areas of the central nervous system; cited from earlier work
animals = conditions: cited from earlier work
[19] = surgical patients pre-treated with clonidine
[20] = clonidine 2 μg.kg−1.h−1 i.v. over 10 min, after 30 to 60 min
[21] = clonidine plus state of the art vs state of the art only

NC[C@H](O)c1ccc(O)c(O)c1 [NA, noradrenaline]
intracellular calcium [1]: do not increase | blood pressure response to NA (vascular reactivity) reduced by a factor [2]: 5

CNC[C@H](O)c1ccc(O)c(O)c1 [adenaline]
alpha-1 messengerRNA (mRNA) ([3]; short term (2-8 h)): increases

C[C@](N)(Cc1ccc(O)c(O)c1)C(=O)O [alpha-methyldopa]
duration of the pressor response to NA (hypertensive patients [4]): prolonged | pressor response to NA (hypertensive patients [4]): increase | central regulation of alpha-2 receptors (alpha-2 receptors): down regulation | central regulation of alpha-1 receptors (alpha-1 receptors [5]): up-regulation

Clc1cccc(Cl)c1N=C1NCCN1 [clonidine]
resting BP (decerebrated rats): “considerably” elevates | capillary refill upon shock ([6]; despite low BP, no peripheral mottling): very good | recovery from septic shock [6, 19]: unimpaired | response to vasopressors and inotropic agents [6, 19]: not blunted | nadir of systolic and diastolic pressure upon liver declamping ([7]; clonidine group as referred to placebo group): higher | noradrenaline requirements ([7]; liver transplant): lowered | beta receptors affinity [8, 20]: decrease | beta receptors density on lymphocytes [8, 20]: increase | beta receptors, effect in vitro ([8]; in vitro): No difference | pressor response above baseline SBP [9]: +31 mm Hg | increase of SBP [10]: 40-70 mm Hg | vascular reactivity to phenylephrine [11]: increased | response to ephedrine [12]: increased | plasma clonidine concentrations (therapeutic range) ([13]; patient pre-treated with clonidine): 1 to 2 ng/mL | rise in plasma catecholamines concentrations ([13]; upon septic shock, plasma clonidine in the therapeutic range): 5-10 fold | BP (tetraplegic patients): does not lower | plasma catecholamines concentrations (tetraplegic patients): does not lower | pressor response to noradrenaline or phenylephrine (tetraplegic patients): Neither does clonidine modify | lactate plasma concentration [14, 21]: more rapid reduction | superior vena cava oxygen saturation [14, 21]: faster improvement | NA requirements needed to support the BP to an acceptable level (MAP>65 mm Hg or adequate diuresis) ([14]; over 24 h, clonidine plus state of the art): reduced dramatically | total withdrawal of NA infusion ([14]; with acceptable diuresis and SBP): 48 to 72 h | bolus dose of NA required to increase the SBP by 25 mm Hg, lowered by ([14]; within 24 h of state of the art treatment combined to clonidine infusion (1 μg.kg−1.h−1 for 24 h), vs baseline reactivity upon completion of initial resuscitation): 50 to 75% | chronotropic reactivity to isoproterenol (aortic surgery patients): increased | CD25: chronotropic dose of isoproterenol to increase HR by 25 bpmin (hypertensive patients [15]; from 2.6 μg, ns): 1.9 µg | PD20: pressor dose of phenylephrine to increase BP by 20 mm Hg (hypertensive patients [15]; from 96 μg, n=30, p<0.05): 39 µg

CC(CCc1ccc(O)cc1)NCCc1ccc(O)c(O)c1 (stereo not shown) [dobutamine]
change in heart rate (HR) on dobutamine challenge (beta receptor; septic patients): +12 bpmin | change in heart rate (HR) on dobutamine challenge (beta receptor; septic shock patients, 10 μg.kg−1.min−1): +3 bpmin

O=[N+]([O-])OCC(CO[N+](=O)[O-])O[N+](=O)[O-] [nitroglycerin]
patients discharged alive ([16]; nitroglycerin bolus 0.5 mg then infusion 2 mg.h−1 (0.5-4 mg.h−1)): 7 out of 8 | peripheral blood flow ([16]; nitroglycerin bolus 0.5 mg then infusion 2 mg.h−1): improved

Cc1ccc(N(CC2=NCCN2)c2cccc(O)c2)cc1 [phentolamine]
effect on the decrease in alpha-1 binding (alpha-1 receptors [17]): suppressed | effect on the adrenaline-evoked increase in alpha-1 mRNA [3]: unaffected

CC(C)NCC(O)COc1cccc2ccccc12 (stereo not shown) [propranolol]
effect on the decrease in alpha-1 binding (alpha-1 receptors [17]): do not affect | effect on the adrenaline-evoked increase in alpha-1 mRNA [3]: suppresses

COC(=O)[C@H]1[C@H]2C[C@@H]3c4[nH]c5cc(OC)ccc5c4CCN3C[C@H]2C[C@@H](OC(=O)c2cc(OC)c(OC)c(OC)c2)[C@@H]1OC [reserpine]
beta-1 and alpha1b-receptors binding [18]: increases | pressor response to NA and phenylphrine (PE) (animals): enhances
